Data: the kinase profiling compilation of Christmann-Franck et al. (2016)

Columns and labels:
ABL2 (human) = ABL2 (human) (UniProt P42684)
ATM (human) = ATM (human) (UniProt Q13315)
BRAF (human) = BRAF (human) (UniProt P15056)
BTK (human) = BTK (human) (UniProt Q06187)
CAMK2A (human) = CAMK2A (human) (UniProt Q9UQM7)
CAMK2B (human) = CAMK2B (human) (UniProt Q13554)
CAMK2G (human) = CAMK2G (human) (UniProt Q13555)
CAMKK2 (human) = CAMKK2 (human) (UniProt Q96RR4)
CSNK1A1 (human) = CSNK1A1 (human) (UniProt P48729)
CSNK2A2 (human) = CSNK2A2 (human) (UniProt P19784)
EIF2AK4 KD1 KD2 (human) = EIF2AK4 KD1 KD2 (human) (UniProt Q9P2K8)
FER (human) = FER (human) (UniProt P16591)
FYN (human) = FYN (human) (UniProt P06241)
HCK (human) = HCK (human) (UniProt P08631)
JAK2 JH1 JH2 (human) = JAK2 JH1 JH2 (human) (UniProt O60674)
JAK3 JH1 JH2 (human) = JAK3 JH1 JH2 (human) (UniProt P52333)
LRRK2 (human) = LRRK2 (human) (UniProt Q5S007)
LYN (human) = LYN (human) (UniProt P07948)
MAP2K2 (human) = MAP2K2 (human) (UniProt P36507)
MAP2K6 (human) = MAP2K6 (human) (UniProt P52564)
MAP3K2 (human) = MAP3K2 (human) (UniProt Q9Y2U5)
MAPK3 (human) = MAPK3 (human) (UniProt P27361)
MAPK8 (human) = MAPK8 (human) (UniProt P45983)
MAPK9 (human) = MAPK9 (human) (UniProt P45984)
MARK2 (human) = MARK2 (human) (UniProt Q7KZI7)
MARK3 (human) = MARK3 (human) (UniProt P27448)
MTOR (human) = MTOR (human) (UniProt P42345)
NEK7 (human) = NEK7 (human) (UniProt Q8TDX7)
PAK4 (human) = PAK4 (human) (UniProt O96013)
PDPK1 (human) = PDPK1 (human) (UniProt O15530)
PIK3C2B (human) = PIK3C2B (human) (UniProt O00750)
PKN1 (human) = PKN1 (human) (UniProt Q16512)
PRKDC (human) = PRKDC (human) (UniProt P78527)
PTK2 (human) = PTK2 (human) (UniProt Q05397)
RIPK2 (human) = RIPK2 (human) (UniProt O43353)
RPS6KA3 KD1 KD2 (human) = RPS6KA3 KD1 KD2 (human) (UniProt P51812)
SGK223 (human) = SGK223 (human) (UniProt Q86YV5)
SIK3 (human) = SIK3 (human) (UniProt Q9Y2K2)
SRC (human) = SRC (human) (UniProt P12931)
STK10 (human) = STK10 (human) (UniProt O94804)
STK16 (human) = STK16 (human) (UniProt O75716)
STK17B (human) = STK17B (human) (UniProt O94768)
TAOK3 (human) = TAOK3 (human) (UniProt Q9H2K8)
WEE1 (human) = WEE1 (human) (UniProt P30291)

Measured: IC50

Chain of PTK2 (human) (Q05397 whole entry, looked up): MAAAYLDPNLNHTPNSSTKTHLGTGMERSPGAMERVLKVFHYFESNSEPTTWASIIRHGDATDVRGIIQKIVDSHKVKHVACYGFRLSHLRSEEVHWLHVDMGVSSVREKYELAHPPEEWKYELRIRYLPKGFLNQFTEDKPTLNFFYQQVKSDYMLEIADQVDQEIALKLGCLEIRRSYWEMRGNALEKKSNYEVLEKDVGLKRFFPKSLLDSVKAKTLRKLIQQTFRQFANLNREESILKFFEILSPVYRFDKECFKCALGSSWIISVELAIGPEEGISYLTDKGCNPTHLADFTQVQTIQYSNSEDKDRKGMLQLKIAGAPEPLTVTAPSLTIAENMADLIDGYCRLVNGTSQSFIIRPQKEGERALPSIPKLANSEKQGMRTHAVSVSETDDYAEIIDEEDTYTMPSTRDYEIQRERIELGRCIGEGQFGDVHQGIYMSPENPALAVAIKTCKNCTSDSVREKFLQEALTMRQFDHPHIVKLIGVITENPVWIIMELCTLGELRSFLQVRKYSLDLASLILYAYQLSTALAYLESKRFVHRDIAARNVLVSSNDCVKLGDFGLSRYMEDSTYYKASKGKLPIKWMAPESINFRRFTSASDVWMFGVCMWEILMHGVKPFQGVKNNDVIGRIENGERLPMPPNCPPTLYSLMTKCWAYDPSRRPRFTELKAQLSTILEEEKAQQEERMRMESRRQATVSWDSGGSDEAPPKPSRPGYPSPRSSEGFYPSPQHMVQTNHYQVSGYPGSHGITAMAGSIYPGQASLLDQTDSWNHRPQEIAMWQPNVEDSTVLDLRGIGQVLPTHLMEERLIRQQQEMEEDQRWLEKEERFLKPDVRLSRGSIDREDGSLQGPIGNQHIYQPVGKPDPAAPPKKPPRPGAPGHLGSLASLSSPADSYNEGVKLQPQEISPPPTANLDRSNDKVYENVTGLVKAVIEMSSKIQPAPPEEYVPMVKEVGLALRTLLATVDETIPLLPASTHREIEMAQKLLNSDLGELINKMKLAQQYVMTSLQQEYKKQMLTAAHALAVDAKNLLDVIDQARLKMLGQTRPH
Chain of STK16 (human) (O75716 whole entry, looked up): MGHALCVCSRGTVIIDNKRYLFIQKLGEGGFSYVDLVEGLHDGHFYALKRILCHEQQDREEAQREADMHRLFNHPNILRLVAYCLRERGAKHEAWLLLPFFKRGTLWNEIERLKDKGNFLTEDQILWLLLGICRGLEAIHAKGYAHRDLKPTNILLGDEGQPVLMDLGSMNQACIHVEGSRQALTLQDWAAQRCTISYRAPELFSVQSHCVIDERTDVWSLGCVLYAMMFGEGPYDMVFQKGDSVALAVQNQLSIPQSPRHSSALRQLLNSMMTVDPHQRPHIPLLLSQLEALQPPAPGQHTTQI
Chain of MAPK8 (human) (P45983 whole entry, looked up): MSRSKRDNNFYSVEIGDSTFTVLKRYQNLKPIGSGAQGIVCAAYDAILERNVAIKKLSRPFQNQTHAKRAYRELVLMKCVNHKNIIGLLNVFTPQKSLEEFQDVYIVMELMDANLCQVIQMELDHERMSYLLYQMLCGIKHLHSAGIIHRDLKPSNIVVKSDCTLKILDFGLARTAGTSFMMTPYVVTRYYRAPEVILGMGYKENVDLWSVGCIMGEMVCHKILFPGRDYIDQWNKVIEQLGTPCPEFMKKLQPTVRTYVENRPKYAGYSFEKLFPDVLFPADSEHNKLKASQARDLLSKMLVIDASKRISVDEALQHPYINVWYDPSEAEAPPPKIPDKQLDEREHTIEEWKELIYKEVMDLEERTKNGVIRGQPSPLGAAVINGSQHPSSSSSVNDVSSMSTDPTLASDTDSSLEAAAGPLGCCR
Chain of NEK7 (human) (Q8TDX7 whole entry, looked up): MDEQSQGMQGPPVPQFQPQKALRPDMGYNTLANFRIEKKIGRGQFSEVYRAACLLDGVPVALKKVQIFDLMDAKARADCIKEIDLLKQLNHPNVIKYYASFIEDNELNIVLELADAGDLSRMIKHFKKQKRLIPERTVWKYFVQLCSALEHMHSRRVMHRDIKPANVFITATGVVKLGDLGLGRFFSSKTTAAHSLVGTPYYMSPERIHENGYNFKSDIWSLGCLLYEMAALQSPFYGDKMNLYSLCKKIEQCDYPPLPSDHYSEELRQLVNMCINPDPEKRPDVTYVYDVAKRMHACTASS
Chain of JAK3 JH1 JH2 (human) (P52333 whole entry, looked up): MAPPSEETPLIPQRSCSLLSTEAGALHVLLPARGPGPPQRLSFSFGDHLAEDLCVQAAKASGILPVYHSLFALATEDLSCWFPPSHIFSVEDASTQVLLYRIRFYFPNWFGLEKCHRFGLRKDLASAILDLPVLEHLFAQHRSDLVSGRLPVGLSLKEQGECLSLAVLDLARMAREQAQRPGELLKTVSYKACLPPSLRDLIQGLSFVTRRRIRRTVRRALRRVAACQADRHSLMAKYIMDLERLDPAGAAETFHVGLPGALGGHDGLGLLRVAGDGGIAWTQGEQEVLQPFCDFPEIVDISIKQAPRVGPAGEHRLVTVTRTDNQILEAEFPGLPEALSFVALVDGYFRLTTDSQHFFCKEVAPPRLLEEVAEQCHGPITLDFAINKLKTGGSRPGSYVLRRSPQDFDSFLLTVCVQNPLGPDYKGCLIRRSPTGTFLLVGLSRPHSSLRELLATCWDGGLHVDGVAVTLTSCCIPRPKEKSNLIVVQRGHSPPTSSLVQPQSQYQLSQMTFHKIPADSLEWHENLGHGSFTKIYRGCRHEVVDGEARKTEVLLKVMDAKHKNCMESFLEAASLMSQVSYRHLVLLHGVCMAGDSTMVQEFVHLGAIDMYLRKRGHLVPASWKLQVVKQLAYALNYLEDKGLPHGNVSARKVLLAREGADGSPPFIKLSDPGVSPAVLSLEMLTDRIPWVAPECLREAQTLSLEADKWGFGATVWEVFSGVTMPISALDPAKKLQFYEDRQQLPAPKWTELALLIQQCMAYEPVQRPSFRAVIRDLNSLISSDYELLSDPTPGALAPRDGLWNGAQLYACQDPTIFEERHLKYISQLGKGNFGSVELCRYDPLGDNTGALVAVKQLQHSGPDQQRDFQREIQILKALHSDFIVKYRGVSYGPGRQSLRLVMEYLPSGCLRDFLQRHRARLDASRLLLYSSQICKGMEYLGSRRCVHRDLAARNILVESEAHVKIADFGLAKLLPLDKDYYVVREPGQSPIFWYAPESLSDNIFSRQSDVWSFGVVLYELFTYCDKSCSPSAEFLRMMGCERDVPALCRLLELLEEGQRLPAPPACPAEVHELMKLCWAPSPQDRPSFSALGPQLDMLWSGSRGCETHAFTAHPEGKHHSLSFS
Chain of BRAF (human) (P15056 whole entry, looked up): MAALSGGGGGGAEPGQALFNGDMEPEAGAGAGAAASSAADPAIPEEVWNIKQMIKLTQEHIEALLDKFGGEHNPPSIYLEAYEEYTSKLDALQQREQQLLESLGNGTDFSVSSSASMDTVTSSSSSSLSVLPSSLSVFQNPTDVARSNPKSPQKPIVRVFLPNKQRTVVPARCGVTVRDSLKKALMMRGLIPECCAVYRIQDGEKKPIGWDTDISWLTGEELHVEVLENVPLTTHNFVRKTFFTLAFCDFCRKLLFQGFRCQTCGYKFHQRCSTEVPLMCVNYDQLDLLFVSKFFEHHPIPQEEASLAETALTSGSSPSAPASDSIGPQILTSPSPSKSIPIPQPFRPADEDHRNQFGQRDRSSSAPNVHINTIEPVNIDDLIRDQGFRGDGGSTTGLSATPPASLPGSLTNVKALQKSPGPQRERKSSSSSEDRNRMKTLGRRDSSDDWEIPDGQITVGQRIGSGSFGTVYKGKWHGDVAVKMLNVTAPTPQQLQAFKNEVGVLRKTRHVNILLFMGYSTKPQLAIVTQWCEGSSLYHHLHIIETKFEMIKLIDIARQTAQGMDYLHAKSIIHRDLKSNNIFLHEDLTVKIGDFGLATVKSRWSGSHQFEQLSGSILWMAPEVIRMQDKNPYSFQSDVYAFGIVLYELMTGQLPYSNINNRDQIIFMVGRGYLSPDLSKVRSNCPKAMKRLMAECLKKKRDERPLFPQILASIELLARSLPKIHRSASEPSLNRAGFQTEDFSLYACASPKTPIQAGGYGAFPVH
Chain of CAMK2B (human) (Q13554 whole entry, looked up): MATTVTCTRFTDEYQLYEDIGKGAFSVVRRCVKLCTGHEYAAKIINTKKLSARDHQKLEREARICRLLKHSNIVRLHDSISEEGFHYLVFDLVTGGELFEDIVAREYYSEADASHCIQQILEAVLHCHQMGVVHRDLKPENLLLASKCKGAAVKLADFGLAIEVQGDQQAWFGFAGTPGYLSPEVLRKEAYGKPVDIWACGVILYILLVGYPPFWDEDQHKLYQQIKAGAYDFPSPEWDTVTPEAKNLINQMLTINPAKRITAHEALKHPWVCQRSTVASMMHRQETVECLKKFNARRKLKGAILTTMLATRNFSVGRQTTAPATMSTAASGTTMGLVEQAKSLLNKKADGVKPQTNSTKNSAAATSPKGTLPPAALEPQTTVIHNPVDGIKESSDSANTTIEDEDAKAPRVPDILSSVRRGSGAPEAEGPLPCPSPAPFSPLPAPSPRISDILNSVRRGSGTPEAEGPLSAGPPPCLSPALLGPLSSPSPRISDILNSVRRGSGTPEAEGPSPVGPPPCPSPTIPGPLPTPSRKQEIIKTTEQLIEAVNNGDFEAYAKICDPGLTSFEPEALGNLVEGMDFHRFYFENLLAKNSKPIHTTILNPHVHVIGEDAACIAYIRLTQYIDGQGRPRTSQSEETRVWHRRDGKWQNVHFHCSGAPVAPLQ
Chain of MAPK3 (human) (P27361 whole entry, looked up): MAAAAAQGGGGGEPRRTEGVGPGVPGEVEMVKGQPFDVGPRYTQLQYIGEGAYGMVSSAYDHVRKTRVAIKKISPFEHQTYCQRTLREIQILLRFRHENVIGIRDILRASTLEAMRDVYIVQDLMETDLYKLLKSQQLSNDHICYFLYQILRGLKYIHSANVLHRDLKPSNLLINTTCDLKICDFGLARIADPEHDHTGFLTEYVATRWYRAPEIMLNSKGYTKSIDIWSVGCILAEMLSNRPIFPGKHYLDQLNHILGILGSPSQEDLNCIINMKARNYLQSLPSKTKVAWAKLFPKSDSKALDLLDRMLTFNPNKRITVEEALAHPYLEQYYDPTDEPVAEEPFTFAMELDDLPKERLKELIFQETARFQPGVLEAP

CN1CC[C@H](c2c(O)cc(O)c3c(=O)cc(-c4ccccc4Cl)oc23)[C@H](O)C1
0.925 µM: CAMKK2 (human)
9.47 µM: TAOK3 (human)
8.41 µM: CSNK1A1 (human)
9.63 µM: LRRK2 (human)
3 µM: MARK3 (human)
7.68 µM: CAMK2B (human)
8.42 µM: CAMK2G (human)
> 10 µM: all other assays above
